Data: patent publication US20130123222A1, “Synergistic Anti-Cancer Activity of SR16388 with Anti-Mitotic Drugs” (SRI INTERNATIONAL, INC., priority 2011, published 2013)

Assays:
Format in all cases: cell-based
cancer cell lines = assay: Combination cell viability assay, general observations on ratios and confirmed synergy; conditions: in combination with SR16388
Protocol: Cells were treated with compounds alone or in combination for three days and CellTiter-Glo® Luminescent Cell Viability Assay (Promega Corp.) was used as the endpoint to measure cell viability. […] Cells were harvested on Day-1 (FIG. 1A) and re-supspended to the corresponding seeding density and seeded with Wellmate (ThermoFisher) to 384 plates (BD or GBO). […] Master plates were made with Janus (PerkinElmer), then further diluted and added to the cell plates with Matrix Platemate (Thermo) on Day 0. CellTiter-Glo® Luminescent Cell Viability Assay (Promega Corp.) was used to measure ATP as an indicator of viable cells on Day 3 using Envision (PerkinElmer) and back up reader Analyst HT (MDS) and Gen5 (BioTek). Relative Luminescent Units (RLU) were plotted against corresponding drug concentrations and fitted with standard four parameter sigmoidal curve with custom coded R program or Calcusyn (Biosoft, Cambridge, UK).

[1] = test system: various cancer cell lines; assay: 11×7 synergism hit rate over all cell lines (by algorism); conditions: for % Hit rate: combination with SR16388, identified by algorism, all cell lines; for interaction with SR16388 in 11×7 experiments: in combination with SR16388
From the text: (§1) SR16388 was synthesized in house.
(§2) Within the same type of cancer cells, some cell lines have more synergistic hits than others. Melanoma and breast cancer cell lines had the highest hit rate.

NCIH226 = assay: 11×7 synergism hit rate; conditions: NSCLC NCIH226, combination with SR16388
From the text: as §1, §2

SKMEL28 = assay: 11×7 synergism hit rate; conditions: Melanoma SKMEL28, combination with SR16388
From the text: as §1, §2

TK10 = assay: 11×7 synergism hit rate; conditions: Renal Cancer TK10, combination with SR16388
From the text: as §1, §2

U251 = assay: 11×7 synergism hit rate; conditions: CNS Cancer U251, combination with SR16388
From the text: as §1, §2

NCIH460 = assay: 11×7 synergism hit rate; conditions: NSCLC NCIH460, combination with SR16388
From the text: as §1, §2

ACHN = assay: 11×7 synergism hit rate; conditions: Renal Cancer ACHN, combination with SR16388
From the text: as §1, §2

SN12C = assay: 11×7 synergism hit rate; conditions: Renal Cancer SN12C, combination with SR16388
From the text: as §1, §2

MOLT4 = assay: 11×7 synergism hit rate; conditions: Leukemia MOLT4, combination with SR16388
From the text: as §1, §2

SR = assay: 11×7 synergism hit rate; conditions: Leukemia SR, combination with SR16388
From the text: as §1, §2

U031 = assay: 11×7 synergism hit rate; conditions: Renal Cancer U031, combination with SR16388
From the text: as §1, §2

UACC257 = assay: 11×7 synergism hit rate; conditions: Melanoma UACC257, combination with SR16388
From the text: as §1, §2

HOP92 = assay: 11×7 synergism hit rate; conditions: NSCLC HOP92, combination with SR16388
From the text: as §1, §2

RPMI8226 = assay: 11×7 synergism hit rate; conditions: Leukemia RPMI8226, combination with SR16388
From the text: as §1, §2

HCT15 = assay: 11×7 synergism hit rate; conditions: Colon Cancer HCT15, combination with SR16388
From the text: as §1, §2

SF295 = assay: 11×7 synergism hit rate; conditions: CNS Cancer SF295, combination with SR16388
From the text: as §1, §2

HS578T = assay: 11×7 synergism hit rate; conditions: Breast Cancer HS578T, combination with SR16388
From the text: as §1, §2

MDAMB231 = assay: 11×7 synergism hit rate; conditions: Breast Cancer MDAMB231, combination with SR16388
From the text: as §1, §2

PCS = assay: 11×7 synergism hit rate; conditions: Prostate Cancer PCS, combination with SR16388
From the text: as §1, §2

SF539 = assay: 11×7 synergism hit rate; conditions: CNS Cancer SF539, combination with SR16388
From the text: as §1, §2

MALME = assay: 11×7 synergism hit rate; conditions: Melanoma MALME, combination with SR16388
From the text: as §1, §2

SF268 = assay: 11×7 synergism hit rate; conditions: CNS Cancer SF268, combination with SR16388
From the text: as §1, §2

HCT116 = assay: 11×7 synergism hit rate; conditions: Colon Cancer HCT116, combination with SR16388
From the text: as §1, §2

HOP62 = assay: 11×7 synergism hit rate; conditions: NSCLC HOP62, combination with SR16388
From the text: as §1, §2

MDAMB435 = assay: 11×7 synergism hit rate; conditions: Melanoma MDAMB435, combination with SR16388
From the text: as §1, §2

A498 = assay: 11×7 synergism hit rate; conditions: Renal Cancer A498, combination with SR16388
From the text: as §1, §2

ADRRES = assay: 11×7 synergism hit rate; conditions: Ovarian Cancer ADRRES, combination with SR16388
From the text: as §1, §2

7860 = assay: 11×7 synergism hit rate; conditions: Renal Cancer 7860, combination with SR16388
From the text: as §1, §2

SNB75 = assay: 11×7 synergism hit rate; conditions: CNS Cancer SNB75, combination with SR16388
From the text: as §1, §2

OVCAR5 = assay: 11×7 synergism hit rate; conditions: Ovarian Cancer OVCAR5, combination with SR16388
From the text: as §1, §2

MCF7 = assay: 11×7 synergism hit rate; conditions: Breast Cancer MCF7, combination with SR16388
From the text: as §1, §2

CCRFCEM = assay: 11×7 synergism hit rate; conditions: Leukemia CCRFCEM, combination with SR16388
From the text: as §1, §2

OVCAR3 = assay: 11×7 synergism hit rate; conditions: Ovarian Cancer OVCAR3, combination with SR16388
From the text: as §1, §2

NCIH322M = assay: 11×7 synergism hit rate; conditions: NSCLC NCIH322M, combination with SR16388
From the text: as §1, §2

KM12 = assay: 11×7 synergism hit rate; conditions: Colon Cancer KM12, combination with SR16388
From the text: as §1, §2

BT549 = assay: 11×7 synergism hit rate; conditions: Breast Cancer BT549, combination with SR16388
From the text: as §1, §2

HL60 = assay: 11×7 synergism hit rate; conditions: Leukemia HL60, combination with SR16388
From the text: as §1, §2

DU145 = assay: 11×7 synergism hit rate; conditions: Prostate Cancer DU145, combination with SR16388
From the text: as §1, §2

SMILES	interaction with SR16388 (confirmed) (cancer cell lines)	% Hit rate [1] [%]	interaction with SR16388 in 11×7 experiments [1]	% Hit rate (NCIH226) [%]	% Hit rate (SKMEL28) [%]	% Hit rate (TK10) [%]	% Hit rate (U251) [%]	% Hit rate (NCIH460) [%]	% Hit rate (ACHN) [%]	% Hit rate (SN12C) [%]	% Hit rate (MOLT4) [%]	% Hit rate (SR) [%]	% Hit rate (U031) [%]	% Hit rate (UACC257) [%]	% Hit rate (HOP92) [%]	% Hit rate (RPMI8226) [%]	% Hit rate (HCT15) [%]	% Hit rate (SF295) [%]	% Hit rate (HS578T) [%]	% Hit rate (MDAMB231) [%]	other results
CC[C@]1(O)C[C@H]2CN(CCc3c([nH]c4ccccc34)[C@@](C(=O)OC)(c3cc4c(cc3OC)N(C=O)[C@H]3[C@@](O)(C(=O)OC)[C@H](OC(C)=O)[C@]5(CC)C=CCN6CC[C@]43[C@@H]65)C2)C1 [Vincristine]	synergistic anti-proliferation effect	10.91	synergistic effect	8	22	14	4	19	8	14	16	0	12	25	8	0	9	21	17	17	% Hit rate (PCS): 1%; % Hit rate (SF539): 12%; % Hit rate (MALME): 14%; % Hit rate (SF268): 18%; % Hit rate (HCT116): 6%; % Hit rate (HOP62): 0%; % Hit rate (MDAMB435): 6%; % Hit rate (A498): 12%; % Hit rate (ADRRES): 1%; % Hit rate 7860: 18%; % Hit rate (SNB75): 9%; % Hit rate (OVCAR5): 1%; % Hit rate (MCF7): 25%; % Hit rate (CCRFCEM): 8%; % Hit rate (OVCAR3): 3%; % Hit rate (NCIH322M): 18%; % Hit rate (KM12): 6%; % Hit rate (BT549): 9%; % Hit rate (HL60): 5%; % Hit rate (DU145): 1%
CC(=O)O[C@@]12CO[C@@H]1C[C@H](O)[C@@]1(C)C(=O)[C@H](O)C3=C(C)[C@@H](OC(=O)[C@H](O)[C@@H](NC(=O)OC(C)(C)C)c4ccccc4)C[C@@](O)([C@@H](OC(=O)c4ccccc4)[C@H]21)C3(C)C [Docetaxel]	synergistic anti-proliferation effect	10.69	synergistic effect	19	31	10	12	31	4	8	13	0	4	18	4	1	12	8	22	10	% Hit rate (PCS): 3%; % Hit rate (SF539): 13%; % Hit rate (MALME): 6%; % Hit rate (SF268): 18%; % Hit rate (HCT116): 18%; % Hit rate (HOP62): 1%; % Hit rate (MDAMB435): 14%; % Hit rate (A498): 4%; % Hit rate (ADRRES): 3%; % Hit rate 7860: 10%; % Hit rate (SNB75): 5%; % Hit rate (OVCAR5): 1%; % Hit rate (MCF7): 19%; % Hit rate (CCRFCEM): 12%; % Hit rate (OVCAR3): 8%; % Hit rate (NCIH322M): 14%; % Hit rate (KM12): 6%; % Hit rate (BT549): 5%; % Hit rate (HL60): 21%; % Hit rate (DU145): 1%
